This is an account of results in ChEMBL document CHEMBL1201862, “PubChem BioAssay data set” (2004).

Molecules are shown by their SMILES.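 Five compound concentrations were applied to cells in 96-well plates for 48 hours; endpoints were derived by simple linear interpolation of the resulting dose-response curve. GI50 is the concentration that inhibits growth by half.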 Activity calls are given as the source filed them. No stated cut-off is given here; in the data, active = GI50 up to about 1.1 µM and inactive = higher. Bounds are passed on as bounds.

Some test systems named below: A498; A549; COLO 205; HCC 2998; HOP-62; MDA-MB-231; MOLT-4; NCI-H23; NCI-H460; NCI/ADR-RES; RPMI-8226; RXF 393; SK-MEL-28; SK-MEL-5; SK-OV-3; SN12C; SNB-75; SW-620; T47D; UACC-62.
Assay in all cases: NCI tumour cell line growth inhibition, 48 h

`COc1ccc(CN(CCc2c[nH]c3ccccc23)Cc2ccc(OC)cc2)cc1`: the GI50 in the experiment on A498 is 4.24 µM (inactive); with A549, 3.63 µM (inactive); in the experiment with COLO 205 it was 2.04 µM (inactive); in the experiment with HCC 2998 it was 3.34 µM (inactive); in the experiment on HOP-62 it was 3.01 µM (inactive); in the experiment with MDA-MB-231 it was 8.65 µM (inactive). Also, the GI50 is > 21 µM (inactive) in the experiment with MOLT-4; 2.31 µM (inactive) in the experiment on NCI-H23; 2.15 µM (inactive) in the experiment on NCI-H460; 3.2 µM (inactive) in the experiment with NCI/ADR-RES; 3.82 µM (inactive) with RPMI-8226; 4.69 µM (inactive) in the experiment with RXF 393. Further, the GI50 is 3.86 µM (inactive) in the experiment on SK-MEL-28; 2.77 µM (inactive) with SK-MEL-5; 5.46 µM (inactive) in the experiment on SK-OV-3; 0.968 µM (active) with SN12C; 6.25 µM (inactive) in the experiment with SNB-75; 4.19 µM (inactive) in the experiment with SW-620. Also, the figures for the GI50 in the experiment with T47D and with UACC-62 were 1.33 µM (inactive) and 2.14 µM (inactive), respectively.

In the case of `O=C(CCN1CCCCC1)N1CCc2c([nH]c3ccccc23)C1c1cccnc1` (stereo unspecified), the GI50 in the experiment on A498 is 30.5 µM (inactive); with A549, > 93.3 µM (inactive); in the experiment with COLO 205, 21.7 µM (inactive); in the experiment with HCC 2998, 28 µM (inactive); in the experiment on HOP-62, > 82.2 µM (inactive); in the experiment on MDA-MB-231, 34.1 µM (inactive). For the same compound, the GI50 is 47.1 µM (inactive) in the experiment with MOLT-4; > 100 µM (inactive) with NCI-H23; 73.1 µM (inactive) with NCI-H460; > 100 µM (inactive) in the experiment on NCI/ADR-RES; 39.7 µM (inactive) in the experiment with RPMI-8226; 28.7 µM (inactive) in the experiment with RXF 393. The GI50 in the experiment with SK-MEL-28 was 19.5 µM (inactive); in the experiment with SK-MEL-5 it was 21.3 µM (inactive); in the experiment with SK-OV-3, > 100 µM (inactive); in the experiment with SN12C, > 81.5 µM (inactive); in the experiment on SNB-75, 58.3 µM (inactive); with SW-620, > 94 µM (inactive). Moreover, the values for the GI50 in the experiment with T47D and in the experiment on UACC-62 were 64.1 µM (inactive) and 20.7 µM (inactive), respectively.

Turning to `COCN1C(=O)[C@@H]2CCCN2C(=O)c2cc(Cl)ccc21`, the GI50 with A498, with A549, with COLO 205, in the experiment with HCC 2998, with HOP-62 and in the experiment with MDA-MB-231 was > 100 µM (inactive) in each case. The GI50 in the experiment with MOLT-4, in the experiment with NCI-H23, in the experiment on NCI-H460, with NCI/ADR-RES, in the experiment on RPMI-8226 and in the experiment on RXF 393 was > 100 µM (inactive) throughout. Also, the GI50 in the experiment on SK-MEL-28, with SK-MEL-5, in the experiment with SK-OV-3, in the experiment with SN12C, in the experiment with SNB-75 and in the experiment on SW-620 was > 100 µM (inactive) in each case. The GI50 with T47D and in the experiment with UACC-62 was > 100 µM (inactive) throughout.

As to `COC(=O)[C@@H]1OC(C)(c2ccccc2)O[C@H]1C(=O)OC`, the GI50 with A498 was > 100 µM (inactive); in the experiment with A549, > 100 µM (inactive); in the experiment on COLO 205, > 100 µM (inactive); with HCC 2998, 76.4 µM (inactive); with HOP-62 it was > 100 µM (inactive); with MDA-MB-231, > 100 µM (inactive). Also, the GI50 in the experiment with MOLT-4, in the experiment with NCI-H23, with NCI-H460, with NCI/ADR-RES, in the experiment on RPMI-8226 and in the experiment on RXF 393 was > 100 µM (inactive) throughout. In addition, the GI50 in the experiment with SK-MEL-28, in the experiment with SK-MEL-5, with SK-OV-3, in the experiment with SNB-75, in the experiment with SW-620 and in the experiment on T47D was > 100 µM (inactive) in each case. Also, the GI50 with UACC-62 was > 100 µM (inactive).

In the case of `CCOC(=O)/C=C/[C@H](O[Si](CC)(CC)CC)C(C)(C)C`, the GI50 with A498 was > 100 µM (inactive); with A549, 35 µM (inactive); in the experiment with COLO 205, 80.5 µM (inactive); in the experiment on HCC 2998, 57.3 µM (inactive); with HOP-62 it was 83.6 µM (inactive); in the experiment on MDA-MB-231, 80.4 µM (inactive). Besides, the GI50 was 77.1 µM (inactive) in the experiment with MOLT-4; > 100 µM (inactive) with NCI-H23; > 100 µM (inactive) in the experiment with NCI-H460; > 100 µM (inactive) in the experiment on NCI/ADR-RES; 20.6 µM (inactive) with RPMI-8226; 47.1 µM (inactive) in the experiment on RXF 393. Also, the GI50 is 45.3 µM (inactive) in the experiment with SK-MEL-5; > 100 µM (inactive) in the experiment on SK-OV-3; 39 µM (inactive) in the experiment on SN12C; > 100 µM (inactive) with SNB-75; 40.7 µM (inactive) with SW-620; 67.1 µM (inactive) in the experiment on T47D. In addition, the GI50 with UACC-62 was 90.2 µM (inactive).

`Cc1ccc(S(=O)(=O)N2CCC(=O)c3cc(Br)ccc32)cc1`: the GI50 in the experiment with A498 is 15 µM (inactive); with A549 it was 13.6 µM (inactive); in the experiment on COLO 205, 16.9 µM (inactive); in the experiment on HCC 2998 it was 24 µM (inactive); with HOP-62, 7.16 µM (inactive); with MDA-MB-231, 6.44 µM (inactive). In addition, the GI50 in the experiment with MOLT-4 was 4.51 µM (inactive); in the experiment on NCI-H23, 19.2 µM (inactive); in the experiment with NCI-H460, 19.3 µM (inactive); with NCI/ADR-RES, 6.56 µM (inactive); in the experiment with RPMI-8226, 12.2 µM (inactive); in the experiment on RXF 393, 12.5 µM (inactive). Moreover, the GI50 in the experiment on SK-MEL-28 is 24.7 µM (inactive); in the experiment with SK-MEL-5, 7.05 µM (inactive); in the experiment on SK-OV-3, 20.5 µM (inactive); in the experiment with SN12C, 12.9 µM (inactive); in the experiment with SNB-75, 14.6 µM (inactive); in the experiment with SW-620 it was 6.04 µM (inactive). The values for the GI50 with T47D and in the experiment on UACC-62 were 23.1 µM (inactive) and 5.21 µM (inactive), respectively.

As to `CCCCN1C(=O)CC2[C@@H]3CCc4cc(OC)ccc4C3CC[C@]2(C)C1=O` (stereo partly specified), the GI50 in the experiment on A498, in the experiment on A549, in the experiment with COLO 205, with HCC 2998, with HOP-62 and in the experiment on MDA-MB-231 was > 10 µM (inactive) each time. Besides, the GI50 in the experiment on MOLT-4, with NCI-H23, in the experiment with NCI-H460, in the experiment with NCI/ADR-RES, in the experiment on RPMI-8226 and in the experiment with RXF 393 was > 10 µM (inactive) in each case. The GI50 in the experiment on SK-MEL-28 is > 10 µM (inactive); with SK-MEL-5, > 10 µM (inactive); in the experiment on SK-OV-3, > 10 µM (inactive); in the experiment on SN12C, > 10 µM (inactive); in the experiment on SNB-75, 3.1 µM (inactive); in the experiment on SW-620, > 10 µM (inactive). Besides, the GI50 with T47D and in the experiment on UACC-62 was > 10 µM (inactive) each time.

Regarding `COC(=O)C(CCC1CC(OC)N(C(=O)OCc2ccccc2)C1)/N=C/c1ccccc1` (stereo unspecified), the GI50 in the experiment on A498 was > 100 µM (inactive); in the experiment on A549, 83 µM (inactive); in the experiment on COLO 205 it was 29.3 µM (inactive); with HCC 2998 it was 31.6 µM (inactive); in the experiment with HOP-62, > 100 µM (inactive); in the experiment with MDA-MB-231, 47 µM (inactive). Also, the GI50 is 30.1 µM (inactive) in the experiment with MOLT-4; 76 µM (inactive) in the experiment on NCI-H23; 78.3 µM (inactive) in the experiment on NCI-H460; > 100 µM (inactive) in the experiment with NCI/ADR-RES; 27.6 µM (inactive) in the experiment on RPMI-8226; > 100 µM (inactive) with RXF 393. The GI50 is > 100 µM (inactive) in the experiment on SK-MEL-28; 29.2 µM (inactive) in the experiment with SK-MEL-5; > 100 µM (inactive) with SK-OV-3; > 100 µM (inactive) in the experiment on SN12C; > 100 µM (inactive) with SNB-75; > 100 µM (inactive) in the experiment with SW-620. Moreover, the results for the GI50 in the experiment on T47D and with UACC-62 were 40.5 µM (inactive) and 84.1 µM (inactive), respectively.

Regarding `N=C(N)C1CN(CCCCCCCCCCN2CC(C(=N)N)C(O)=NC2=O)C(=O)N=C1O` (stereo unspecified), the GI50 in the experiment with A498, with A549, in the experiment on COLO 205, in the experiment on HCC 2998, in the experiment with HOP-62 and with MDA-MB-231 was > 10 µM (inactive) throughout. For the same compound, the GI50 in the experiment on MOLT-4, with NCI-H23, in the experiment with NCI-H460, in the experiment on NCI/ADR-RES, in the experiment on RPMI-8226 and with RXF 393 was > 10 µM (inactive) throughout. Besides, the GI50 in the experiment on SK-MEL-5, in the experiment with SK-OV-3, with SN12C, with SNB-75, in the experiment on SW-620 and in the experiment with T47D was > 10 µM (inactive) each time. Moreover, the GI50 with UACC-62 was > 10 µM (inactive).

In the case of `COc1cc2c(cc1[N+](=O)[O-])C(=O)C(Br)(Br)CCC2`, the GI50 in the experiment with A498 was 15.3 µM (inactive); in the experiment with A549, 4.37 µM (inactive); in the experiment with COLO 205, 1.91 µM (inactive); with HCC 2998, 14 µM (inactive); in the experiment on HOP-62, 3.38 µM (inactive); with MDA-MB-231 it was 3.05 µM (inactive). Also, the GI50 with MOLT-4 was 0.354 µM (active); in the experiment on NCI-H23 it was 2.79 µM (inactive); with NCI-H460, 6.65 µM (inactive); with NCI/ADR-RES, 2.68 µM (inactive); in the experiment with RPMI-8226 it was 1.8 µM (inactive); in the experiment on RXF 393 it was 1.93 µM (inactive). The GI50 in the experiment with SK-MEL-5 is 1.72 µM (inactive); in the experiment with SK-OV-3, 3.21 µM (inactive); in the experiment with SN12C, 2.21 µM (inactive); with SNB-75, 13.1 µM (inactive); in the experiment on SW-620, 1.88 µM (inactive); with T47D, 2.68 µM (inactive). Besides, the GI50 with UACC-62 is 3.43 µM (inactive).
